# Reference: ChEMBL document CHEMBL5247638, “From rational design to serendipity: Discovery of novel thiosemicarbazones as potent trypanocidal compounds” (Eur J Med Chem, 2022)
# The source made the active and inactive calls. The rule behind the calls is not given here.
# Assays:
# Trypanosoma brucei [1] = assay: Inhibition of TbrCatL using Z-FR-AMC as substrate at 100 uM by fluorimetric analysis relative to control
# Trypanosoma brucei [2] = assay: Inhibition of TbrCatL using Z-FR-AMC as substrate at 100 uM preincubated for 10 mins followed by substrate addition by fluorimetric analysis relative to control
# Cruzipain = Cruzipain (Trypanosoma cruzi, UniProt P25779); assay: Inhibition of Trypanosoma cruzi cruzain using Z-FR-AMC as substrate preincubated for 10 mins followed by substrate addition by fluorimetric analysis
# [3] = Inhibition of TbrCatL using Z-FR-AMC as substrate preincubated for 10 mins followed by substrate addition by fluorimetric analysis; set-up: species or system Trypanosoma brucei
# Trypanosoma brucei [4] = assay: Antiparasitic activity against Trypanosoma brucei incubated for 72 hrs by SYBR Green 1 dye based fluorescence assay; type: functional, organism-based
# Trypanosoma cruzi [5] = assay: Antiparasitic activity against Trypanosoma cruzi CA-I/72 incubated for 72 hrs by DAPI staining based microscopic analysis; type: functional, organism-based; conditions: CA-I/72, 72 h
# [6] = target: Cruzipain (Trypanosoma cruzi) (UniProt P25779); assay: Inhibition of Trypanosoma cruzi cruzain using Z-FR-AMC as substrate at 100 uM by fluorimetric analysis relative to control
# [7] = target: Cruzipain (Trypanosoma cruzi) (UniProt P25779); assay: Inhibition of Trypanosoma cruzi cruzain using Z-FR-AMC as substrate at 100 uM preincubated for 10 mins followed by substrate addition by fluorimetric analysis relative to control
# [8] = target: Nonstructural protein 3 (Zika virus) (UniProt A0A024AXB9); assay: Inhibition of Zika virus NS2B-NS3 protease using Bz-Nle-Lys-Lys-Arg-AMC as substrate at 0.78 uM preincubated for 10 mins followed by substrate addition relative to control
# [9] = Inhibition of TbrCatL using Z-FR-AMC as substrate preincubated for 10 mins followed by substrate addition in presence of 0% Triton by fluorimetric analysis; set-up: species or system Trypanosoma brucei
# [10] = Inhibition of TbrCatL using Z-FR-AMC as substrate preincubated for 10 mins followed by substrate addition in presence of 0.01% Triton by fluorimetric analysis; set-up: species or system Trypanosoma brucei
# [11] = Inhibition of TbrCatL using Z-FR-AMC as substrate preincubated for 10 mins in presence of BSA followed by substrate addition by fluorimetric analysis; set-up: species or system Trypanosoma brucei
# [12] = target: Cruzipain (Trypanosoma cruzi) (UniProt P25779); assay: Inhibition of Trypanosoma cruzi cruzain using Z-FR-AMC as substrate at 0.25 to 1 uM incubated for 10 mins by fluorimetric analysis; conditions: dose 0.25-1 µM
# [13] = Selectivity index, ratio of CC50 for mouse myoblasts cells to EC50 for Trypanosoma cruzi CA-I/72; type: toxicity; conditions: read-out: Ratio CC50/EC50
# Trypanosoma cruzi [14] = assay: Potency index, ratio of pentamidine EC50 to test compound EC50 for antiparasitic activity against Trypanosoma cruzi CA-I/72 incubated for 72 hrs by DAPI staining based microscopic analysis; type: functional
# Trypanosoma cruzi [15] = assay: Potency index, ratio of benznidazole EC50 to test compound EC50 for antiparasitic activity against Trypanosoma cruzi CA-I/72 incubated for 72 hrs by DAPI staining based microscopic analysis; type: functional
# [16] = Inhibition of TbrCatL using Z-FR-AMC as substrate preincubated for 10 mins followed by substrate addition in presence of 0.1% Triton by fluorimetric analysis; set-up: species or system Trypanosoma brucei
# Cruzipain, sequence (P25779 whole entry): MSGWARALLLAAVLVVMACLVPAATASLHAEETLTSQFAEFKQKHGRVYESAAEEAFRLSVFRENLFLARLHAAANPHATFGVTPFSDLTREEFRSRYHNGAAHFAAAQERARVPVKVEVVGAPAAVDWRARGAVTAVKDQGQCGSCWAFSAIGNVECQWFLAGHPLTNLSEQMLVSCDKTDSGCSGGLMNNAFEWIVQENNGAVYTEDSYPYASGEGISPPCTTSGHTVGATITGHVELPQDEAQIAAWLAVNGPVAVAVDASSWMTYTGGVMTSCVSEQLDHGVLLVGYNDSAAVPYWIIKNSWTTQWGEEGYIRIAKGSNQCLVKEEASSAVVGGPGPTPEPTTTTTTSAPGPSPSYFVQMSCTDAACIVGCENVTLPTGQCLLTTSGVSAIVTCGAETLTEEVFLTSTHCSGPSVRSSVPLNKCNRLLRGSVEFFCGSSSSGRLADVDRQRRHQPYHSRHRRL
# Cruzipain (Trypanosoma cruzi), sequence (P25779 123-467 limits assumed): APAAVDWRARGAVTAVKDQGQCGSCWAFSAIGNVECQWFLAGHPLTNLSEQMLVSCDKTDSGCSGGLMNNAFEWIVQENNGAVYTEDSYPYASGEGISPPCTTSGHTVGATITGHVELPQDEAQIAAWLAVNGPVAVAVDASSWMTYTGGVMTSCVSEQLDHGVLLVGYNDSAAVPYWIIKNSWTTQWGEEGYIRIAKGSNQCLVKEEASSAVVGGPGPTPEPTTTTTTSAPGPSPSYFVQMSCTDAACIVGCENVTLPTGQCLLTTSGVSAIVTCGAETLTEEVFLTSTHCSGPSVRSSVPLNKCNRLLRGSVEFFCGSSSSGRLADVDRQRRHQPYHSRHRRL
# Nonstructural protein 3 (Zika virus), sequence (A0A024AXB9 as listed by the source): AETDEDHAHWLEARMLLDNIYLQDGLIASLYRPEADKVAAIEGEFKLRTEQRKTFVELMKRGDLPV
smiles,measurement,setting,value
OCCNCc1ccc(-c2ccc(Br)cc2Cl)o1,inhibition,Trypanosoma brucei [1],68%
same,inhibition,Trypanosoma brucei [2],67%
same,IC50,Cruzipain,51 µM
same,IC50,[3],78 µM
same,EC50,Trypanosoma brucei [4],13 µM
same,EC50,Trypanosoma cruzi [5],> 10 µM
N/C(S)=N/N=C/c1ccc(-c2ccc(Cl)cc2)o1,inhibition,[6],19%
same,inhibition,[7],94%
same,inhibition,Trypanosoma brucei [1],14%
same,inhibition,Trypanosoma brucei [2],96%
same,IC50,[3],0.04 µM
same,inhibition,[8],24%
same,EC50,Trypanosoma brucei [4],27 µM
same,EC50,Trypanosoma cruzi [5],0.56 µM
same,IC50,[9],0.07 µM
same,IC50,[10],0.04 µM
same,IC50,[11],15 µM
same,inhibition,[12],inactive
NC(=S)N/N=C/c1cn(-c2ccc(Br)cc2Cl)nn1,inhibition,[6],16%
same,inhibition,[7],6%
same,inhibition,Trypanosoma brucei [1],25%
same,inhibition,Trypanosoma brucei [2],98%
same,IC50,[3],2.5 µM
same,EC50,Trypanosoma brucei [4],> 50 µM
same,EC50,Trypanosoma cruzi [5],> 10 µM
same,IC50,[9],0.6 µM
same,IC50,[10],2 µM
Clc1cc(Br)ccc1-c1ccc(CNCCN2CCOCC2)o1,inhibition,Trypanosoma brucei [1],62%
same,inhibition,Trypanosoma brucei [2],60%
same,IC50,Cruzipain,92 µM
same,IC50,[3],79 µM
same,EC50,Trypanosoma brucei [4],24.4 µM
same,EC50,Trypanosoma cruzi [5],0.59 µM
same,selectivity ratio,[13],> 17
O=C(NCCO)c1cn(-c2ccc(Br)cc2Cl)nn1,EC50,Trypanosoma brucei [4],> 50 µM
same,EC50,Trypanosoma cruzi [5],> 10 µM
CN(C)CCCNCc1ccc(-c2ccc(Br)cc2)o1,inhibition,[6],79%
same,inhibition,Trypanosoma brucei [1],59%
NC(=S)N/N=C/c1ccc(-c2ccc(Br)cc2Cl)o1,inhibition,[6],17%
same,inhibition,[7],70%
same,inhibition,Trypanosoma brucei [1],22%
same,inhibition,Trypanosoma brucei [2],90%
same,IC50,Cruzipain,0.45 µM
same,IC50,[3],0.05 µM
same,inhibition,[8],8%
same,EC50,Trypanosoma brucei [4],> 50 µM
same,EC50,Trypanosoma cruzi [5],0.027 µM
same,selectivity ratio,[13],> 370
same,Ratio EC50,Trypanosoma cruzi [14],200
same,Ratio EC50,Trypanosoma cruzi [15],200
same,IC50,[9],0.006 µM
same,IC50,[10],0.05 µM
same,IC50,[16],0.7 µM
same,IC50,[11],14 µM
same,inhibition,[12],inactive
CN(C)CCCNCc1ccc(-c2ccc(Cl)cc2Cl)o1,inhibition,[6],67%
same,inhibition,Trypanosoma brucei [1],81%
OCC(CO)NCc1ccc(-c2ccc(Cl)c(C(F)(F)F)c2)o1,inhibition,Trypanosoma brucei [1],0%
same,inhibition,Trypanosoma brucei [2],51%
same,IC50,Cruzipain,133 µM
same,EC50,Trypanosoma brucei [4],> 50 µM
same,EC50,Trypanosoma cruzi [5],> 10 µM
O=C(Cn1ccnc1[N+](=O)[O-])NCc1ccccc1 [BENZNIDAZOLE],EC50,Trypanosoma cruzi [5],5.4 µM
same,selectivity ratio,[13],> 9
OCCNCc1cn(-c2ccc(Cl)cc2)nn1,EC50,Trypanosoma brucei [4],> 50 µM
same,EC50,Trypanosoma cruzi [5],> 10 µM
NC(=S)N/N=C/c1cn(-c2ccc(Cl)cc2)nn1,inhibition,[6],52%
same,inhibition,[7],72%
same,inhibition,Trypanosoma brucei [1],73%
same,inhibition,Trypanosoma brucei [2],91%
same,IC50,[3],16.5 µM
same,EC50,Trypanosoma brucei [4],> 50 µM
same,EC50,Trypanosoma cruzi [5],> 10 µM
same,IC50,[9],1 µM
same,IC50,[10],16 µM
NC(=S)N/N=C/c1ccc(-c2ccc(Cl)cc2)o1,IC50,Cruzipain,1 µM
same,selectivity ratio,[13],> 18
Clc1ccc(-n2cc(CNCC3CCNCC3)nn2)cc1,IC50,[3],168 µM
same,EC50,Trypanosoma brucei [4],49.7 µM
same,EC50,Trypanosoma cruzi [5],> 10 µM
OCC(CO)NCc1ccc(-c2ccc(Br)cc2Cl)o1,inhibition,Trypanosoma brucei [1],64%
same,IC50,Cruzipain,149 µM
same,IC50,[3],90 µM
same,EC50,Trypanosoma brucei [4],39.5 µM
same,EC50,Trypanosoma cruzi [5],> 10 µM
OCCNCc1ccc(-c2ccc(Cl)c(Cl)c2)o1,inhibition,[6],62%
same,inhibition,[7],55%
same,inhibition,Trypanosoma brucei [1],29%
same,inhibition,Trypanosoma brucei [2],40%
same,EC50,Trypanosoma brucei [4],> 50 µM
same,EC50,Trypanosoma cruzi [5],> 10 µM
OCCNCc1cn(-c2ccc(Cl)c(Cl)c2)nn1,EC50,Trypanosoma brucei [4],> 50 µM
same,EC50,Trypanosoma cruzi [5],> 10 µM
OCCNCc1cn(-c2ccc(Br)cc2Cl)nn1,EC50,Trypanosoma brucei [4],> 50 µM
same,EC50,Trypanosoma cruzi [5],> 10 µM
